Laboratory results reported in patent EP2508526A1, “Spiroalkene carboxamide derivatives and their use as chemokine receptor modulators” (Ares Trading SA, priority 2011, dated 2012).

Key:
hCCR2b [1] = biological target: T1, hCCR2b (Homo sapiens, UniProt P41597); assay: CCR2 binding assay ([125I]MCP-1, SPA, CHO cell membranes); parameters: expressed in transfected cells; host or cells: CHO cells (membrane preparation); settings: membranes from CHO cells expressing hCCR2b, 50 pM [125I]MCP-1; read-out: Binding hCCR2 (Ki)
T1 sequence (P41597 1-360 isoform P41597-2): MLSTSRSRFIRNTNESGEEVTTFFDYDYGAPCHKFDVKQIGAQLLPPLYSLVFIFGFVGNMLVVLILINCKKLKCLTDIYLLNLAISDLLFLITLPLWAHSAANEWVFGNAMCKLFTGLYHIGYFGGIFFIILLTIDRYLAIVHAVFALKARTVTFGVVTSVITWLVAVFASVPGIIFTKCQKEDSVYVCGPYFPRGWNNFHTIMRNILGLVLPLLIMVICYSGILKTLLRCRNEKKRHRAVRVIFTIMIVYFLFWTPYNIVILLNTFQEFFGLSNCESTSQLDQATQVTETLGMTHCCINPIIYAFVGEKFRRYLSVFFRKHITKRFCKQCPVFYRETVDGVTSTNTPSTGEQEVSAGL
In short: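 CHO membranes expressing hCCR2b (1–5 µg/well) with 50 pM [125I]MCP-1 and WGA SPA beads in 50 mM HEPES pH 7.4, 5 mM MgCl2, 1 mM CaCl2, 0.1% BSA, 1% DMSO; 90 min RT with agitation. Bound counts on scintillation counter; nonspecific defined by 1000-fold excess unlabeled compound.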

hCCR2b [2] = biological target: T1, hCCR2b; assay: Chemotaxis of L1.2-hCCR2b cells towards MCP-1 P8A; type: cell-based; parameters: expressed in transfected cells; host or cells: L1.2 cells (murine pre-B cell line); settings: MCP-1 P8A at EC80, 4-hours incubation
Text: L1.2 cells, a murine pre-LB cellline, were transfected with the human CCR2b receptor for use in the transmigration of L1.2 hCCR2b on the chemotaxis system: ChemotX® provided by Neuroprobes (8µm pore size). Monocyte Chemoattractant Protein-1 (MCP-1) stimulation leads to activate the CCR2 receptor and inititates a cascade of events including chemotaxis. MCP-1 ligand will be replaced by MCP-1 P8A protein with genetic modifications to prevent the oligomerization of the protein. L1.2-hCCR2b are incubated in white RPMI 1640, 5% v/v Heat inactivated FCS, 1% v/v penicillin-streptomycin supplemented with 5 mM Butyrate overnight to enhance receptor expression level at the cell surface. L1.2-hCCR2b cells and compounds in DMSO (1% final) are preincubated 15 min in chemotaxis medium and placed in the Upper Chamber of the chemotaxis system. The MCP-1 P8A initially present at its EC80 (concentration of MCP-1 P8A which allows 80% of cell migration) in the Lower Chamber (with compounds to avoid any compound gradient) diffuses through the pores of the membrane and interacts with the CCR2 receptor of cells present in the upper chamber. The tested compounds can also potentially interact with CCR2 receptor and therefore inhibit the migration of the cells from the Upper Chamber to the Lower Chamber. After a 4-hours incubation time at 37°C, 5% CO2, a quantification of the cells which have migrated is performed using the Cyquant (Invitrogen) and a fluorescent reader as a Fluostar (exc: 485nm; emm: 520 nm). Specific migration is assessed by substracting the basal migration of cells without any stimulation. Chemotaxis data were analyzed using the Genedata Screener® software.

Q: What does the source list for `CC1=C(C(=O)N2CCc3ccc(C(F)(F)F)cc3C2)C2(CCN(C(C)C)CC2)OC1=O` [Compound 62, 8-isopropyl-3-methyl-4-{[7-(trifluoromethyl)-3,4-dihydroisoquinolin-2 (1H)-yl]carbonyl}-1-oxa-8-azaspiro[4.5]dec-3-en-2-one]?
A: Ki (hCCR2b [1]): < 50 nM; Ki (hCCR2b [2]): < 50 nM

Q: With `CCN1CCC2(CC1)OC(=O)C(C)=C2C(=O)N1CCN(c2cccc(C(F)(F)F)c2)CC1` [Compound 74, 8-ethyl-3-methyl-4-({4-[3-(trifluoromethyl)phenyl]piperazin-1-yl}carbonyl)-1-oxa-8-azaspiro[4.5]dec-3-en-2-one] as the compound, how does the Ki (hCCR2b [1]) read?
A: < 50 nM

Q: What about the Ki (hCCR2b [2]) of the same compound?
A: < 50 nM

Q: How did the Ki (hCCR2b [1]) turn out when `CC1=C(C(=O)N2COc3ccc(C(F)(F)F)cc3C2)C2(CCN(C(C)C)CC2)OC1=O` [Compound 66, 8-isopropyl-3-methyl-4-{[6-(trifluoromethyl)-2H-1,3-benzoxazin-3(4H)-yl]carbonyl}-1-oxa-8-azaspiro[4.5]dec-3-en-2-one] was run?
A: < 50 nM

Q: And the Ki (hCCR2b [2])?
A: < 50 nM

Q: Which Ki (hCCR2b [1]) does the source give for `CCN1CCC2(CC1)OC(=O)C(C)=C2C(=O)N1CCc2ccc(C(F)(F)F)cc2C1` [Compound 97, 8-ethyl-3-methyl-4-{[7-(trifluoromethyl)-3,4-dihydroisoquinolin-2(1H)-yl]carbonyl}-1-oxa-8-azaspiro[4.5]dec-3-en-2-one] here?
A: < 50 nM

Q: And the Ki (hCCR2b [2])?
A: < 50 nM

Q: With `CC1=C(C(=O)N2CCc3ccc(C(F)(F)F)cc3C2)C2(CCN(C3CCCCC3)CC2)OC1=O` [Compound 29, 8-cyclohexyl-3-methyl-4-{[7-(trifluoromethyl)-3,4-dihydroisoquinolin-2(1H)-yl]carbonyl}-1-oxa-8-azaspiro[4.5]dec-3-en-2-one] as the compound, how does the Ki (hCCR2b [1]) read?
A: < 50 nM

Q: How did the Ki (hCCR2b [1]) turn out when `CC1=C(C(=O)N2CCN(c3cccc(C(F)(F)F)c3)CC2)C2(CCN(CCc3ccc(Cl)cc3)CC2)OC1=O` [Compound 13, 8-[2-(4-chlorophenyl)ethyl]-3-methyl-4-({4-[3-(trifluoromethyl)phenyl]piperazin-1-yl}carbonyl)-1-oxa-8-azaspiro[4.5]dec-3-en-2-one] was run?
A: < 50 nM

Q: `CO[C@@H]1COCC[C@@H]1N1CCC2(CC1)OC(=O)C(C)=C2C(=O)N1CCc2ncc(C(F)(F)F)cc2C1` (single isomer, unassigned) [Compound 44, (-)-1,5-anhydro-2,3-dideoxy-4-O-methyl-3-(3-methyl-2-oxo-4-{[3-(trifluoromethyl)-7,8-dihydro-1,6-naphthyridin-6(5H)-yl]carbonyl}-1-oxa-8-azaspiro[4.5]dec-3-en-8-yl)-pentitol] was tested. Which Ki (hCCR2b [1]) did it give?
A: 100 to 500 nM

Q: How did the Ki (hCCR2b [1]) turn out when `CCN1CCC2(CC1)OC(=O)C(C)=C2C(=O)N1CCN(c2cc(C(F)(F)F)ccn2)CC1` [Compound 70, 8-ethyl-3-methyl-4-({4-[4-(trifluoromethyl)pyridin-2-yl]piperazin-1-yl}carbonyl)-1-oxa-8-azaspiro[4.5]dec-3-en-2-one] was run?
A: < 50 nM

Q: How did the Ki (hCCR2b [1]) turn out when `CCN1CCC2(CC1)OC(=O)C(C)=C2C(=O)N1CCN(c2ccc(Cl)c(C(F)(F)F)c2)CC1` [Compound 82, 4-({4-[4-chloro-3-(trifluoromethyl)phenyl]piperazin-1-yl}carbonyl)-8-ethyl-3-methyl-1-oxa-8-azaspiro[4.5]dec-3-en-2-one] was run?
A: < 50 nM

Q: `CCN1CCC2(CC1)OC(=O)C(C)=C2C(=O)NCC(=O)Nc1cccc(C(F)(F)F)c1` [Compound 56, 8-ethyl-3-methyl-2-oxo-N-(2-oxo-2-{[3-(trifluoromethyl)phenyl]amino}ethyl)-1-oxa-8-azaspiro[4.5]dec-3-ene-4-carboxamide] was tested. Which Ki (hCCR2b [1]) did it give?
A: < 50 nM

Q: For `COC1COCCC1N1CCC2(CC1)OC(=O)C(C)=C2C(=O)N1CCc2ncc(C(F)(F)F)cc2C1` (single isomer, unassigned; (+)) [Compound 48, (+)-1,5-anhydro-3,4-dideoxy-2-O-methyl-3-(3-methyl-2-oxo-4-{[3-(trifluoromethyl)-7,8-dihydro-1,6-naphthyridin-6(5H)-yl]carbonyl}-1-oxa-8-azaspiro[4.5]dec-3-en-8-yl)-pentitol], which Ki (hCCR2b [1]) is on record?
A: 100 to 500 nM

Q: How did the Ki (hCCR2b [1]) turn out when `CC1=C(C(=O)N2CCN(c3cccc(C(F)(F)F)c3)CC2)C2(CCN(CCCC(=O)O)CC2)OC1=O` [Compound 11, 4-[3-methyl-2-oxo-4-({4-[3-(trifluoromethyl)phenyl]piperazin-1-yl}carbonyl)-1-oxa-8-azaspiro[4.5]dec-3-en-8-yl]butanoic acid] was run?
A: 100 to 500 nM

Q: For `CC1=C(C(=O)N2CCc3ccc(C(F)(F)F)cc3C2)C2(CCN(C3CCOC3)CC2)OC1=O` (stereo not shown) [Compound 34, 3-methyl-8-(tetrahydrofuran-3-yl)-4-{[7-(trifluoromethyl)-3,4-dihydroisoquinolin-2(H)-yl]carbonyl}-1-oxa-8-azaspiro[4.5]dec-3-en-2-one], which Ki (hCCR2b [1]) is on record?
A: < 50 nM

Q: For `CCN1CCC2(CC1)OC(=O)C(C)=C2C(=O)N1CCN(CCc2ccc(F)cc2)CC1` [Compound 58, 8-ethyl-4-({4-[2-(4-fluorophenyl)ethyl]piperazin-1-yl}carbonyl)-3-methyl-1-oxa-8-azaspiro[4.5]dec-3-en-2-one], which Ki (hCCR2b [1]) is on record?
A: 100 to 500 nM

Q: `CCN1CCC2(CC1)OC(=O)C(C)=C2C(=O)N1CCC(Nc2ccc(C(F)(F)F)cc2)C1` (stereo not shown) [Compound 83, 8-ethyl-3-methyl-4-[(3-{[4-(trifluoromethyl)phenyl]amino}pyrrolidin-1-yl)carbonyl]-1-oxa-8-azaspiro[4.5]dec-3-en-2-one] was tested. Which Ki (hCCR2b [1]) did it give?
A: < 50 nM

Q: How did the Ki (hCCR2b [1]) turn out when `CCN1CCC2(CC1)OC(=O)C(C)=C2C(=O)N1CCc2cccc(C(F)(F)F)c2C1` [Compound 51, 8-ethyl-3-methyl-4-{[8-(trifluoromethyl)-3,4-dihydroisoquinolin-2 (1H)-yl]carbonyl}-1-oxa-8-azaspiro[4.5]dec-3-en-2-one] was run?
A: 500 to 2000 nM

Q: How did the Ki (hCCR2b [1]) turn out when `CC1=C(C(=O)N2CCc3ccc(C(F)(F)F)cc3C2)C2(CCN(C3CCOCC3)CC2)OC1=O` [Compound 26, 3-methyl-8-(tetrahydro-2H-pyran-4-yl)-4-{[7-(trifluoromethyl)-3,4-dihydroisoquinolin-2(1H)-yl]carbony}-1-oxa-8-azaspiro[4.5]dec-3-en-2-one] was run?
A: < 50 nM

Q: And the Ki (hCCR2b [2])?
A: < 50 nM

Q: Which Ki (hCCR2b [1]) does the source give for `CCN1CCC2(CC1)OC(=O)C(C)=C2C(=O)N1CCN(c2cc(Cl)cc(C(F)(F)F)c2)CC1` [Compound 86, 4-({4-[3-chloro-5-(trifluoromethyl)phenyl]piperazin-1-yl}carbonyl)-8-ethyl-3-methyl-1-oxa-8-azaspiro[4.5]dec-3-en-2-one] here?
A: < 50 nM

Q: `CC1=C(C(=O)N2CCc3ccc(C(F)(F)F)cc3C2)C2(CCN(C3CCS(=O)(=O)CC3)CC2)OC1=O` [Compound 37, 8-(1,1-dioxidotetrahydro-2H-thiopyran-4-yl)-3-methyl-4-{[7-(trifluoromethyl)-3,4-dihydroisoquinolin-2(1H)-yl]carbonyl}-1-oxa-8-azaspiro[4.5]dec-3-en-2-one] was tested. Which Ki (hCCR2b [1]) did it give?
A: 50 to 100 nM

Q: `CCN1CCC2(CC1)OC(=O)C(C)=C2C(=O)N1CCN(c2cc(C(F)(F)F)cc(C(F)(F)F)c2)CC1` [Compound 88, 4-({4-[3,5-bis(trifluoromethyl)phenyl]piperazin-1-yl}carbonyl)-8-ethyl-3-methyl-1-oxa-8-azaspiro[4.5]dec-3-en-2-one] was tested. Which Ki (hCCR2b [1]) did it give?
A: < 50 nM
